# Earlier results in article PMC9972852, “Multivalent effect of peptide functionalized polymeric nanoparticles towards selective prostate cancer targeting” (Nanoscale Advances, 2023).
# System: extracellular domain of PSMA
# Details: monomeric peptide WQPDTAHHWATL
# Text: Prostate specific membrane antigen (PSMA) is a 100 kDa type II transmembrane glycosylated protein with folate hydrolase activity and is overexpressed not only in nearly all prostate cancer cells,[6] but also in tumor neovasculature in a variety of cancers.[6–8] In contrast, it has minimal expression (100–1000 times lower) in normal prostate epithelium tissues and other normal tissues,[7,9] making it an ideal biomarker for the design of various targeted therapies. Several different kinds of targeting ligands against PSMA have been discovered over the years;[10–12] however, they have not yet had ...
sequence,measurement,value
"WQPDTAHHWATLC [WQP peptide, PSMA-targeting cell targeting peptide …, synthesized with an added C-terminal cysteine]",Binding affinity to the extracellular domain of PSMA,moderate/low
